Patent US11590092B2, “Skin probiotic” (The Regents of the University of California, priority 2014, dated 2023)
Values after ≈ are worked out from the molar mass of the structure shown. “Also recorded” adds a separate entry of the source.

Experiments:
USA300 [1] = assay: MBC assay against USA300; assay type: cell-based, Staphylococcus aureus
Method: To determine the MBC of propionic acid, USA300 (10^6 CFU/ml) were incubated with propionic acid at various concentrations (1.25-100 mM in PBS) as indicated in each individual experiment in media on a 96-well microplate (100 μl per well) overnight. The control received only PBS. After incubation, the bacteria were diluted 1:10-1:10^6 with PBS. […] To determine the pH effect on the bacterial growth, USA300 in TSB was incubated with 2.5 mM propionic acid on a 96-well microplate (100 μl per well) overnight before spotting on an agar plate.
To determine the minimal bactericidal concentration (MBC) and minimal fungicidal concentration (MFC) of propionic acid, microorganisms (10^6 colony forming units (cfu)/ml) were incubated overnight in media with propionic acid (1.25-2,000 mM) in a 96-well microplate (100 μl per well). The control only received PBS. After incubation, the microorganisms were diluted 1:10-1:10^6 into PBS. […]

P. acnes [2] = assay: MBC assays of SCFAs against P. acnes; assay type: cell-based, Propionibacterium acnes; details: for MBC: Cutibacterium acnes, P. acnes 10^8 CFU/ml, overnight, 99.9% killing level
Method: To determine the MBC values of SCFAs, P. acnes (10^8 CFU/ml) was incubated with SCFAs at various concentrations (2.5-100 mM in PBS) as indicated in each individual experiment in media on a 96-well microplate (100 μl per well) overnight. The control received only PBS. After incubation, the bacteria were diluted 1:10-1:10^6 with PBS. MBC was defined as a 99.9% killing level and determined by spotting the dilution (5 μl) on an agar plate supplemented with media for CFU counting. To determine the effect of pH on its growth, P. acnes in PBS was incubated with 5 mM succinic acid on a 96-well microplate (100 μl per well) overnight before spotting on an agar plate. As controls, P. acnes was incubated with PBS (pH 7.4) alone, PBS (pH 5.5; a pH value corresponding to the MBC of succinic acid in PBS), or buffered succinic acid (5 mM succinic acid, pH 7.4 buffered with ammonium hydroxide).
The minimal bactericidal concentration (MBC) assays were performed to determine if SCFAs exert the antimicrobial activities against P. acnes. Bacteria were incubated with acetic acid, butyric acid, lactic acid, and succinic acid various concentrations in media for 24 h. After incubation, the bacteria were diluted with PBS and spotted on an agar plate to count CFUs. […] To assess the acidity (pH 5.5) of 5 mM succinic acid in affecting growth of P. acnes, bacteria were incubated with PBS (pH 5.5) or ammonium hydroxide-buffered succinic acid (pH 7.4).

USA300 [3] = assay: Growth of USA300 with glycerol; assay type: cell-based, Staphylococcus aureus; details: glycerol itself
USA300 [4] = assay: Interference of P. acnes fermentation with the colonization of USA300 in skin wounds in vivo; set-up: species or system ICR mice; details: glycerol 0.2 mg alone, compared to PBS
Method: A 5 mm wound made on the dorsal skin of ICR mice were described above. P. acnes bacteria (10^7 CFU in 5 μl PBS), P. acnes bacteria and glycerol (0.2 mg), PBS (5 μl) alone or glycerol alone were applied onto the skin wounds for 3 days. USA300 (10^7 CFU in 5 μl PBS) was administered onto the same wounds. The wounds were excised, weighted and homogenized 3 days after USA300 administration. Bacterial CFUs in the wounds were enumerated by plating serial dilutions (1:10^1-1:10^6) of the homogenate on a TSB agar plate. The plate was incubated for 24 h at 37° C. to count colonies of USA300.

P. acnes [5] = assay: Growth curve of P. acnes in absence or presence of glycerol (OD600); assay type: cell-based, Propionibacterium acnes; details: rich medium with glycerol vs without, anaerobic, 30° C.
Method: P. acnes was incubated in rich medium in the absence (□) and presence (▪) of glycerol on a 96-well microplate under anaerobic conditions at 30° C. The OD600 was read at the indicated time points. Data are the mean±SD of three separate experiments.

P. acnes [6] = test system: P. acnes
P. acnes [7] = details: 5 mM, 5 min after treatment, vs PBS
Method: To eliminate unbound probe, bacteria were incubated with glucose (10 mM) for an additional 30 min, washed twice in 50 mM PBS with 10 mM MgCl2, pH 7.0, and then re-suspended in 1 mM PBS. […] Fluorescence intensities were measured immediately and every min for 5 min using an excitation wavelength of 490 nm and emission wavelength of 520 nm. A drop in relative fluorescence indicates the decrease in intracellular pH. Fluorescence of the bacteria-free filtrate (background fluorescence) was measured after the 5-min assay. The treated suspensions were centrifuged at 5,000 g for 5 min, the fluorescence of the bacteria-free supernatant was measured. Calibration curves were obtained by incubation of un-treated, cFSE-loaded bacteria in buffers of various pHs. The buffer containing glycine (50 mM), citric acid (50 mM), Na2HPO4.2H2O (50 mM), and KCl (50 mM) was adjusted to various pH values ranging from 4 to 10. Equilibration of the intracellular and extracellular pH was conducted by addition of 1 μM valinomycin and nigericin (Sigma, St. Louis, Mo.).
P. acnes was loaded with an internally conjugated fluorescent pH probe, carboxyfluorescein succinimidyl ester (cFSE).

[8] = topical application, 100 mM once per day, vs PBS

## CCC(=O)OCCOCCOC(=O)CC [PA-DEG-PA, propionic acid 2-(2-propionyloxyethoxy)ethyl ester]
USA300 [1]; 4% dimethyl sufoxide
  efficacy to suppress the growth of USA300 in vitro compared with propionic acid: equivalent in efficacy
USA300 [1]; dissolved in 4% dimethyl sufoxide, overnight
  concentration for complete growth inhibition of USA300: 100 mM
USA300 [1]; dissolved in 4% dimethyl sufoxide, overnight, 0-100 mM
  MBC (>1 log10 inhibition) against USA300: ≥ 25 mM

## CC(=O)O [acetic acid]
P. acnes [2]
  MBC: 7.5 mM (≈ 450 µg/mL)

## CCCC(=O)O [butyric acid]
P. acnes [2]
  MBC: 10 mM (≈ 881 µg/mL)

## OCC(O)CO [glycerol]
USA300 [3]
  growth of USA300: did not influence
USA300 [4]
  USA300 colonization: did not significantly alter
  size of USA300-infected lesions: did not significantly alter
P. acnes [5]
  growth of P. acnes: did not influence; also recorded: did not change significantly

## CC(O)C(=O)O (stereo not drawn) [lactic acid]
P. acnes [2]
  MBC: 10 mM (≈ 901 µg/mL)

## O=C(O)CCC(=O)O [succinic acid]
P. acnes [6]; application of succinic acid (FIG. 5)
  P. acnes-induced inflammation: significantly neutralizes
P. acnes [6]; intralesional injection, 5 mM
  P. acnes numbers in ears: 2.9×10^4±1.3×10^4 CFU
P. acnes [6]; intralesional injection, 5 mM, two days after injection, ELISA
  MIP-2 production less than in PBS-injected ear: approximately 50%
P. acnes [6]; intralesional injection, 5 mM, vs PBS
  P. acnes-induced redness: reduced
P. acnes [6]; [8]
  MIP-2 production: considerably lowered
  P. acnes colonization: considerably lowered
P. acnes [2]; 5 mM succinic acid buffered with ammonium hydroxide, pH 7.4
  antimicrobial activity against P. acnes after buffering: persisted
P. acnes [2]
  MBC: 5 mM (≈ 590 µg/mL)
P. acnes [2]; MBC assay
  concentration that completely killed P. acnes: ≥ 210 mM
  concentration that effectively suppressed the growth of P. acnes: ≥ 25 mM
P. acnes [7]
  intracellular pH of P. acnes: significantly lowered
